Source: US12390425B1, “Use of tyrosol as a physiological enhancer of creatine and its application in continuous high intensity exercise” (MolTek Nutrition Co., Ltd, priority 2024, dated 2025)

Key:
Type in all cases: in vivo
mice [1] = experiment: Grip strength test during continuous high-intensity exercise (Experiment 2); conditions: for Percentage change of muscle strength (grip strength relative to first exercise): gavage daily 4 weeks: Ty 75 mg/kg tyrosol, CR 260 mg/kg creatine monohydrate, Ty+CR 75 mg/kg+260 mg/kg
Protocol: Animal Experiment 1: Six-week-old mice were used. After one week of acclimation to the environment, the mice were randomly divided into the following groups:
(§1) Control Group: Normal diet, serving as the control group.
(§2) Ty Group: Normal diet, with 75 mg/kg tyrosol administered by gavage daily.
(§3) CR Group: Normal diet, with 260 mg/kg creatine monohydrate administered by gavage daily.
(§4) Ty+CR Group: Normal diet, with 75 mg/kg tyrosol+260 mg/kg creatine monohydrate administered by gavage daily.
(§5) This regimen continued for 4 weeks. The first grip strength test was conducted 30 minutes after the last gavage. The grip strength of the mice's limbs was measured using a grip strength meter. After a 1-hour rest, the mice underwent the first exhaustive swimming exercise. […] The mice were then placed in a weighted swimming tank at a water temperature of 30±1° C. for the exhaustive swimming test. Exhaustion was considered if the mice touched the bottom of the tank three consecutive times within 30 seconds. The detector recorded the mice's bottom-touching instances, and upon determining exhaustion, the swimming tank automatically lifted the mice, recording the exhaustive swimming time.
(§6) 24 hours after the first swimming exercise, the second grip strength test and exhaustive swimming exercise were conducted using the same methods, recording grip strength data and exhaustive swimming time. The third and fourth grip strength tests and exhaustive swimming exercises were conducted 24 hours after the previous exercise, recording the respective data. The gavage regimen remained unchanged during the intervals.
Note: The data compared each group's grip strength in subsequent exercises to their grip strength in the first exercise, reflected the difference in grip strength from the initial value.

mice [2] = experiment: Weighted exhaustive swimming test during continuous high-intensity exercise (Experiment 2); conditions: for Percentage change of exhaustive exercise time (relative to first exercise): gavage daily 4 weeks: Ty 75 mg/kg tyrosol, CR 260 mg/kg creatine monohydrate, Ty+CR 75 mg/kg+260 mg/kg; for Exhaustive swimming exercise time compared to control group, FIG. 2 / Trend of exhaustive swimming exercise time during continuous exercise, FIG. 2: Ty 75 mg/kg, CR 260 mg/kg, Ty+CR 75+260 mg/kg; for Exhaustive swimming exercise time compared to control group, FIG. 2: 4 weeks; for Trend of exhaustive swimming exercise time during continuous exercise, FIG. 2: four exercises 24 h apart
Protocol: After one week of acclimation to the environment, the mice were randomly divided into the following groups:
as §1, §2, §3, §4, §5, §6
Note: The data compared each group's exhaustive exercise time in subsequent exercises to their exhaustive exercise time in the first exercise, reflected the difference in exhaustive exercise time from the initial value.

mice [3] = experiment: Grip strength test during continuous high-intensity exercise (Experiment 2); conditions: first grip strength test; Ty 75 mg/kg, CR 260 mg/kg, Ty+CR 75+260 mg/kg, 4 weeks
skeletal muscle of mice = experiment: Phosphocreatine and creatine levels in dissected leg skeletal muscle after continuous interval electrical stimulation (Experiment 1); conditions: for Creatine (CR) level in skeletal muscle / Phosphocreatine (PCr) level in skeletal muscle / Total creatine (TCr) level in skeletal muscle: 2 weeks diet: CR 5% creatine monohydrate, Ty+CR 1% tyrosol and 5% creatine monohydrate, mean±SE; for Total creatine (TCr) level in skeletal muscle: sum of PCr and CR
Protocol: Animal Experiment: Thirty 8-week-old mice were prepared and acclimated to the laboratory environment for one week before being randomly divided into three groups. Control Group: Normal diet with no added active ingredients, serving as the control group. CR Group: Normal diet supplemented with 5% creatine monohydrate. Ty+CR Group: Normal diet supplemented with 1% tyrosol and 5% creatine monohydrate.
After two weeks of feeding, the mice were anesthetized, and the leg skeletal muscles were dissected, showing clear connective tissue without blood. For muscle contraction tests via electrical stimulation, the muscles were first incubated in a specific physiological buffer solution for 10 minutes to recover from dissection. The muscles were then clamped with aluminum forceps and stimulated using platinum electrodes and a capacitor alternating polarity discharge.
The muscles were subjected to 250 ms electrical stimulation with six intervals, each interval progressively shortened from 4 s to 1 s. After six interval stimulations, a 1-minute observation period followed before the next round, totaling four rounds. The left and right leg muscles of each mouse were labeled, and subjected to the aforementioned electrical stimulation test.
Phosphocreatine (PCr) and creatine (CR) levels were immediately measured in the dissected right leg muscles after the electrical stimulation test. The dissected left leg muscles of all groups were measured for phosphocreatine and creatine levels 5 minutes after the test. Total creatine (TCr) levels were the sum of phosphocreatine and creatine levels. Standard fluorescence assay was used to determine phosphocreatine and creatine levels in muscle samples extracted with perchloric acid precipitation.
Note: Values are expressed as mean±SE, in mmol/kg dry weight.

mice [4] = experiment: Grip strength test during continuous high-intensity exercise (Experiment 3)
Protocol: (§7) Animal Experiment 2: Six-week-old mice were used. After one week of acclimation to the environment, the mice were randomly divided into the following groups:
as §1
(§8) Ty 1 Group: Normal diet, with 2.6 mg/kg tyrosol administered by gavage daily.
(§9) CR 1-3 Groups: Normal diet, with 65 mg/kg, 390 mg/kg, and 1300 mg/kg creatine monohydrate administered by gavage daily.
(§10) Ty+CR 1-4 Groups: Normal diet, with 2.6 mg/kg tyrosol+65 mg/kg creatine monohydrate, 130 mg/kg tyrosol+130 mg/kg creatine monohydrate, 390 mg/kg tyrosol+1300 mg/kg creatine monohydrate, and 2.6 mg/kg tyrosol+1300 mg/kg creatine monohydrate administered by gavage daily.
With the exception of groups Ty 1, CR 1, and Ty+CR 1 which were fed for 8 weeks, all other dosing groups were fed for 4 weeks, with one daily gavage. Groups CR 3, Ty+CR 3, and Ty+CR 4 received their daily gavage dose in two separate administrations each day. Half of the control group was fed for 4 weeks, and the other half for 8 weeks. The first grip strength test was conducted 30 minutes after the last gavage, followed by the first exhaustive swimming exercise after a 1-hour rest. Grip strength and swimming exercise methods were the same as previously described. 24 hours after the first swimming exercise, the second grip strength test and exhaustive swimming exercise were conducted using the same methods, recording grip strength data and exhaustive swimming time. The third and fourth grip strength tests and exhaustive swimming exercises were conducted 24 hours after the previous exhaustive swimming exercise, recording grip strength data and exhaustive swimming time. Groups CR 3 and Ty+CR 4 underwent up to the eighth grip strength test and exhaustive swimming exercise, maintaining the same exercise methods. During the intervals, the gavage regimen for each group remained unchanged.

mice [5] = experiment: Weighted exhaustive swimming test during continuous high-intensity exercise (Experiment 3)
Protocol: as §7, §1, §8, §9, §10
With the exception of groups Ty 1, CR 1, and Ty+CR 1 which were fed for 8 weeks, all other dosing groups were fed for 4 weeks, with one daily gavage. Groups CR 3, Ty+CR 3, and Ty+CR 4 received their daily gavage dose in two separate administrations each day. Half of the control group was fed for 4 weeks, and the other half for 8 weeks. The first grip strength test was conducted 30 minutes after the last gavage, followed by the first exhaustive swimming exercise after a 1-hour rest. Grip strength and swimming exercise methods were the same as previously described. […]

[6] = 5 min later after electrical stimulation
[7] = immediately after electrical stimulation
[8] = CR 1: 65 mg/kg creatine monohydrate, Ty+CR 1: 2.6 mg/kg tyrosol+65 mg/kg creatine monohydrate, 8 weeks

Compound	Percentage change of muscle strength (grip strength relative to first exercise) (mice [1]; First exercise)	Percentage change of muscle strength (grip strength relative to first exercise) (mice [1]; Fourth exercise) [%]	Percentage change of muscle strength (grip strength relative to first exercise) (mice [1]; Second exercise) [%]	Percentage change of muscle strength (grip strength relative to first exercise) (mice [1]; Third exercise) [%]	Percentage change of exhaustive exercise time (relative to first exercise) (mice [2]; Fourth exercise) [%]	Percentage change of exhaustive exercise time (relative to first exercise) (mice [2]; Second exercise) [%]	Percentage change of exhaustive exercise time (relative to first exercise) (mice [2]; Third exercise) [%]	Exhaustive swimming exercise time compared to control group, FIG. 2 (mice [2])	Trend of exhaustive swimming exercise time during continuous exercise, FIG. 2 (mice [2])	Muscle strength (grip strength) compared to control group, FIG. 1 (mice [3])	other results
OCCc1ccc(O)cc1 [Ty, tyrosol]	1	85.05	97.40	96.55	88.45	97.13	94.54	significantly higher than that of the control group mice	declined to varying degrees	did not show a significant increase in muscle strength	–
CN(CC(=O)O)C(=N)N.O [CR, creatine monohydrate]	1	76.10	89.24	83.81	81.88	95.26	88.10	did not improve the endurance of the mice at the beginning	declined to varying degrees	significantly increased compared to the control group	Creatine (CR) level in skeletal muscle (skeletal muscle of mice; [6]): 22.7 ± 2.8 mmol/kg dry weight; Phosphocreatine (PCr) level in skeletal muscle (skeletal muscle of mice; [6]): 39.7 ± 2.2 mmol/kg dry weight; Total creatine (TCr) level in skeletal muscle (skeletal muscle of mice; [6]): 62.4 ± 3.0 mmol/kg dry weight; Decrease of creatine levels 5 minutes after end of muscle contraction (creatine conversion) (skeletal muscle of mice; immediate vs 5-min-later data within each group): 53.86%; Creatine (CR) level in skeletal muscle (skeletal muscle of mice; [7]): 49.2 ± 3.7 mmol/kg dry weight; Phosphocreatine (PCr) level in skeletal muscle (skeletal muscle of mice; [7]): 13.4 ± 1.2 mmol/kg dry weight; Total creatine (TCr) level in skeletal muscle (skeletal muscle of mice; [7]): 62.6 ± 4.0 mmol/kg dry weight; Levels of creatine, phosphocreatine and total creatine compared to control group (skeletal muscle of mice; immediately after stimulation or 5 minutes later): higher than those in the control group; Trend of muscle strength (grip strength) in subsequent exercises, FIG. 1 (mice [1]; four exercises 24 h apart, CR 260 mg/kg, Ty+CR 75+260 mg/kg): decline rate in the creatine group was also rapid; Percentage change of exhaustive exercise time (relative to first exercise) (mice [2]; First exercise): 1; Muscle strength (grip strength) compared to control group, FIG. 4 (mice [4]; [8]): significantly increased the muscle strength of the mice; Muscle strength (grip strength) compared to control group, FIG. 3 (mice [4]; CR 2: 390 mg/kg creatine monohydrate, Ty+CR 2: 130 mg/kg tyrosol+130 mg/kg creatine monohydrate, 4 weeks): significantly higher than that in the control group; Trend of muscle strength (grip strength) during continuous exercise, FIG. 3 (mice [4]; CR 2: 390 mg/kg creatine monohydrate, Ty+CR 2: 130 mg/kg tyrosol+130 mg/kg creatine monohydrate, four exercises): marked decline in muscle strength; Endurance time (exhaustive swimming) compared to control group, FIG. 6 (mice [5]; [8]): did not improve the endurance time of mice; Endurance (exhaustive swimming time), FIG. 5 (mice [5]; CR 2: 390 mg/kg creatine monohydrate, 4 weeks): able to enhance the endurance of mice and prolong exercise time
